The values that follow come from US10344060B2 (priority 2013, dated 2019).

Read-outs that look alike come from different tables or passages of the source.

Common to all, as to assay: cell-based
Experiment [1] concerns the target T1, hNav1.7 (Homo sapiens, UniProt Q15858). The experiment is classed as cell-based. As to conditions: for IC50: read-out: PX hNav1.7 Tonic IC50.
For a further experiment, the target named is hNav1.6 (Homo sapiens, UniProt Q9UQD0). It is filed as cell-based. To be noted: for Nav1.6/Nav1.7 / IC50: Table 15; for Nav1.6/Nav1.7: ratio of PX tonic IC50 values; for IC50: read-out: PX hNav1.6 Tonic IC50.
A further experiment has as its target hNav1.4 (Homo sapiens, UniProt P35499). It is filed as cell-based. To be noted: Table 12; for IC50: PatchXpress, tonic block, read-out: PX hNav1.4 Tonic IC50; for Nav1.4/Nav1.7: ratio of PX tonic IC50 values.
The target of experiment [2] is T1, hNav1.7. As to conditions: ratio of IonWorks Quattro IC50 values; Table 8. A general note: The patch-clamp technique gives a direct electrical read-out from membranes.
Setting [3] is: Table 12, PatchXpress, tonic block.
Where [4] appears, read: ratio of PX tonic IC50 values, Table 11.

Chain of hNav1.6 (Q9UQD0 whole entry): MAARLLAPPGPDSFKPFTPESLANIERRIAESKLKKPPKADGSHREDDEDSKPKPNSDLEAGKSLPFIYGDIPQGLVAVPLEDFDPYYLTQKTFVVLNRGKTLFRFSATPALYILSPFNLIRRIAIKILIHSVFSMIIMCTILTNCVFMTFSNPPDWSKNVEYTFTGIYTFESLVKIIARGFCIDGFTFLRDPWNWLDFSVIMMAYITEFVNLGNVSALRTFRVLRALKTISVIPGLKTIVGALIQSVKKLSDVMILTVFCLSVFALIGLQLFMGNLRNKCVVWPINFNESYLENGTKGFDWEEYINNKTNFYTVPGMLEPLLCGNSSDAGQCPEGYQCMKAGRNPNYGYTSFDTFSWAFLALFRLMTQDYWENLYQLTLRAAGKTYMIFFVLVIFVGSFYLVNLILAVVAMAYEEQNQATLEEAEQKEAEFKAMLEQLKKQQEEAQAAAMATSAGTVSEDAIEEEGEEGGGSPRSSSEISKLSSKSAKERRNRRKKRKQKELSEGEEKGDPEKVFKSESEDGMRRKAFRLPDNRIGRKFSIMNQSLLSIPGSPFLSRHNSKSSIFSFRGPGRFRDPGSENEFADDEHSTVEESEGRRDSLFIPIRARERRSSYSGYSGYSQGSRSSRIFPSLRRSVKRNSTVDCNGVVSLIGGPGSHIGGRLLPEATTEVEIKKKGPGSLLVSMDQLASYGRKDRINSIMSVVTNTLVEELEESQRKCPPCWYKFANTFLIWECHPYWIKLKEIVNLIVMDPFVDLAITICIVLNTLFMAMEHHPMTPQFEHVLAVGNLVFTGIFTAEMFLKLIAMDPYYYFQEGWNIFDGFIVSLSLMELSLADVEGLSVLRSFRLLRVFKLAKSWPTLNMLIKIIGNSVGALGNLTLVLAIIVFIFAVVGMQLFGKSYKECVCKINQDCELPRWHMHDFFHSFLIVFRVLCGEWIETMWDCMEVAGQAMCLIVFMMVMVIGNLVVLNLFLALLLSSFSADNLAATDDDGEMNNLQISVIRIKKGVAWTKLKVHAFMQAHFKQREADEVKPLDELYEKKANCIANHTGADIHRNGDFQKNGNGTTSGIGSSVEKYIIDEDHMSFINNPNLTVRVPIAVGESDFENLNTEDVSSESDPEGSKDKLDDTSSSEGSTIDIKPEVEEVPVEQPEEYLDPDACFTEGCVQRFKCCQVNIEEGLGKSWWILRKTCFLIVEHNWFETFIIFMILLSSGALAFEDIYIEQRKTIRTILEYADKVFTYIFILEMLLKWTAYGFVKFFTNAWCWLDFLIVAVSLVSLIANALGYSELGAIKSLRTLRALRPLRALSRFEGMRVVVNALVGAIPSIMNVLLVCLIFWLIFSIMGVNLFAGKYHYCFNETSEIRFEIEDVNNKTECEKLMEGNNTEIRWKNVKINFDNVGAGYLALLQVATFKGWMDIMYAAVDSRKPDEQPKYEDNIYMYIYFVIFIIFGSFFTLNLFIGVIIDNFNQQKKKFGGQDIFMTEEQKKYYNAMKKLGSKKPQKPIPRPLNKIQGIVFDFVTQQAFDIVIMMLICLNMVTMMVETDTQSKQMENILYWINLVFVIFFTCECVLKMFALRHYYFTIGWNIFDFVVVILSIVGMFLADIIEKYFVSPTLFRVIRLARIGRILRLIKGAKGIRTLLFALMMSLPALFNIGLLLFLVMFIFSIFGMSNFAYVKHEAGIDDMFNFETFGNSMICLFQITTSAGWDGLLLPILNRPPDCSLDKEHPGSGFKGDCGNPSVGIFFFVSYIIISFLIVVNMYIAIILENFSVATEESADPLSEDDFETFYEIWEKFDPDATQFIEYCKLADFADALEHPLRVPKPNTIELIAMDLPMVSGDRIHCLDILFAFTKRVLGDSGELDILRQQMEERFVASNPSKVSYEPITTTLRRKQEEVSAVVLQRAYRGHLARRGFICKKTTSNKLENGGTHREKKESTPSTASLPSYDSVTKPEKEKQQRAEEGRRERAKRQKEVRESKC
T1 sequence (Q15858 whole entry): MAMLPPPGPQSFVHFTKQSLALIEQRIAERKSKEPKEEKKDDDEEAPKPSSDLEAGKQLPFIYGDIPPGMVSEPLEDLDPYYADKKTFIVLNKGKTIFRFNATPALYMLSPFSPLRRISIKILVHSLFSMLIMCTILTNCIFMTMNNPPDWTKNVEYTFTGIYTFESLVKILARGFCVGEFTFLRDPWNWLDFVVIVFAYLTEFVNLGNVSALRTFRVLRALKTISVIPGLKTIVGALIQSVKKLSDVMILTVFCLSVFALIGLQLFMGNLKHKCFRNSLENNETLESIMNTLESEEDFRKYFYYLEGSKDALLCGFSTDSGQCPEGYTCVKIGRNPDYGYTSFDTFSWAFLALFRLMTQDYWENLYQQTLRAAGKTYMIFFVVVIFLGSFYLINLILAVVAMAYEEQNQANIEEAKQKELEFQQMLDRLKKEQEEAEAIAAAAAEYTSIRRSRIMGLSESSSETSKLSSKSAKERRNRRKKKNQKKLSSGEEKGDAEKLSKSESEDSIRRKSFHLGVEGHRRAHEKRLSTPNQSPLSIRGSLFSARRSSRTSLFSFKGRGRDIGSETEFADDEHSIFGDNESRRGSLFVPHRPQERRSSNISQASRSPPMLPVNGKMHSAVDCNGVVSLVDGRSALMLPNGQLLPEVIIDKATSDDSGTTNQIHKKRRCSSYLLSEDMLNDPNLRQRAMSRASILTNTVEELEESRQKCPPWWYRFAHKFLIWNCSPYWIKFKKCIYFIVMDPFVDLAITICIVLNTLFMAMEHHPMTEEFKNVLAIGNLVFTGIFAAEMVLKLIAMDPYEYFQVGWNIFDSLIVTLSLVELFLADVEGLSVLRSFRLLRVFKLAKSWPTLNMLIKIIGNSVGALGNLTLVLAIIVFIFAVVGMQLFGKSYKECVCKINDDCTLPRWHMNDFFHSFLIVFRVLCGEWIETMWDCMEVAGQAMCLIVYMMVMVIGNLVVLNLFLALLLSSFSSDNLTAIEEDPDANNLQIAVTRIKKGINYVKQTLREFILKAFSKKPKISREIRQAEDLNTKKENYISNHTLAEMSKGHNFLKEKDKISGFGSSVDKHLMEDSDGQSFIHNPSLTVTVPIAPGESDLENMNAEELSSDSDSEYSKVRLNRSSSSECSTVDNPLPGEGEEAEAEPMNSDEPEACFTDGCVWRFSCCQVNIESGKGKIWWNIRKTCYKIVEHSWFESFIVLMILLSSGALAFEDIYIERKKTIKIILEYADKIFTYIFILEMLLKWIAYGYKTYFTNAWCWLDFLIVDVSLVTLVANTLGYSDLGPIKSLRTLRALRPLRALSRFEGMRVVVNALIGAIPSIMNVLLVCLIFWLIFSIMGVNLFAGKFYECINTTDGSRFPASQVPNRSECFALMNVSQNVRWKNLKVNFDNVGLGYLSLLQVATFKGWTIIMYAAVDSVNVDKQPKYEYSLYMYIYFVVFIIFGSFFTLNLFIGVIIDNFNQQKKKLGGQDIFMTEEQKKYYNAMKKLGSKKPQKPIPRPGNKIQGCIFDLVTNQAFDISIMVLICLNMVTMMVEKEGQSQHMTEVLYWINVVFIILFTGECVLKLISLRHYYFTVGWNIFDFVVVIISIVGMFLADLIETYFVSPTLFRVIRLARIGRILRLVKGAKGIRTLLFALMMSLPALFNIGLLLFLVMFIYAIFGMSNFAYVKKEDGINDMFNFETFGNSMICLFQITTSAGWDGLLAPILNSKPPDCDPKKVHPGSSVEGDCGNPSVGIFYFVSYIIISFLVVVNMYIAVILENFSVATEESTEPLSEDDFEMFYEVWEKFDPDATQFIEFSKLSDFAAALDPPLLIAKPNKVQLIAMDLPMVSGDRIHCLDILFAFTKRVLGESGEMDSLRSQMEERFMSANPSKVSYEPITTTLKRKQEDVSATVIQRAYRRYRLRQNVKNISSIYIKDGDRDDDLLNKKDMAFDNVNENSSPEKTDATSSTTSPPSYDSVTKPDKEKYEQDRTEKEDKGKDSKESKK

The term IC50 denotes the point on the concentration scale where inhibition reaches its midpoint. As for `C#CC[C@H](N)C(=O)N[C@@H](Cc1ccc(O)cc1)C(=O)N[C@H]1CSSC[C@@H]2NC(=O)[C@@H]3CSSC[C@@H](C(=O)N[C@@H](CCCNC(=N)N)C(=O)N[C@@H](CCCCN)C(=O)N[C@@H](CCC(=O)O)C(=O)N[C@H](C(N)=O)[C@@H](C)CC)NC(=O)[C@H](Cc4c[nH]c5ccccc45)NC(=O)[C@H](CC(C)C)NC(=O)[C@H](CCCCN)NC(=O)[C@H](CSSC[C@H](NC(=O)[C@H]([C@@H](C)O)NC(=O)[C@H](Cc4c[nH]c5ccccc45)NC(=O)[C@H](CCCC)NC(=O)[C@H](Cc4c[nH]c5ccccc45)NC(=O)[C@H](CCCCN)NC(=O)[C@H](CCC(N)=O)NC1=O)C(=O)N[C@@H](CC(=O)O)C(=O)N[C@@H](CO)C(=O)N[C@@H](CCCCN)C(=O)N[C@@H](CCCNC(=N)N)C(=O)N[C@@H](C)C(=O)N3)NC(=O)[C@H](CCCNC(=N)N)NC(=O)[C@H](CC(C)C)NC(=O)CNC(=O)[C@H](CCCCN)NC2=O` [compound 718], the IC50 at hNav1.7 [1] (setting [3]) was found to be 0.00142 µM; at hNav1.6, 0.148 µM; on hNav1.4, 0.0339 µM. The Nav1.6/Nav1.7 at hNav1.6 amounted to 104. Also, the Nav1.4/Nav1.7 at hNav1.4 turned out to be 24.

As for `C#CC[C@H](N)C(=O)N[C@@H](CCC(=O)O)C(=O)N[C@H]1CSSC[C@@H]2NC(=O)[C@@H]3CSSC[C@@H](C(=O)N[C@@H](CCCNC(=N)N)C(=O)N[C@@H](CCCCN)C(=O)N[C@@H](CCC(=O)O)C(=O)N[C@H](C(N)=O)[C@@H](C)CC)NC(=O)[C@H](Cc4c[nH]c5ccccc45)NC(=O)[C@H](CC(C)C)NC(=O)[C@H](CCCCN)NC(=O)[C@H](CSSC[C@H](NC(=O)[C@H]([C@@H](C)O)NC(=O)[C@H](Cc4c[nH]c5ccccc45)NC(=O)[C@H](CCCC)NC(=O)[C@H](Cc4c[nH]c5ccccc45)NC(=O)[C@H](CCCCN)NC(=O)[C@H](CCC(N)=O)NC1=O)C(=O)N[C@@H](CC(=O)O)C(=O)N[C@@H](CO)C(=O)N[C@@H](CCC(=O)O)C(=O)N[C@@H](CCCNC(=N)N)C(=O)N[C@@H](C)C(=O)N3)NC(=O)[C@H](CCCNC(=N)N)NC(=O)[C@H](CC(C)C)NC(=O)CNC(=O)[C@H](CCC(=O)O)NC2=O` [compound 742], the concentration for half-maximal inhibition (IC50) on hNav1.7 [1] (setting [3]) was 0.00414 µM. For the same molecule, on hNav1.6, the Nav1.6/Nav1.7 stood at 333 and the IC50 was 1.38 µM. Further, on hNav1.4, the IC50 stood at 1.72 µM and the Nav1.4/Nav1.7 was 416.

In the case of `C#CC[C@H](NC(=O)[C@@H](N)CCC(=O)O)C(=O)N[C@H]1CSSC[C@@H]2NC(=O)[C@@H]3CSSC[C@@H](C(=O)N[C@@H](CCCNC(=N)N)C(=O)N[C@@H](CCCCN)C(=O)N[C@@H](CCC(=O)O)C(=O)N[C@H](C(N)=O)[C@@H](C)CC)NC(=O)[C@H](Cc4c[nH]c5ccccc45)NC(=O)[C@H](CC(C)C)NC(=O)[C@H](CCCCN)NC(=O)[C@H](CSSC[C@H](NC(=O)[C@H]([C@@H](C)O)NC(=O)[C@H](Cc4c[nH]c5ccccc45)NC(=O)[C@H](CCCC)NC(=O)[C@H](Cc4c[nH]c5ccccc45)NC(=O)[C@H](CCCCN)NC(=O)[C@H](CCC(N)=O)NC1=O)C(=O)N[C@@H](CC(=O)O)C(=O)N[C@@H](CCC(=O)O)C(=O)N[C@@H](CCCCN)C(=O)N[C@@H](CCCNC(=N)N)C(=O)N[C@@H](CCC(=O)O)C(=O)N3)NC(=O)[C@H](CCCNC(=N)N)NC(=O)[C@H](CC(C)C)NC(=O)CNC(=O)[C@H](CCC(=O)O)NC2=O` [compound 750], the IC50 was 0.00291 µM at hNav1.7 [1] (setting [3]), more than 10 µM on hNav1.6 and 1.19 µM at hNav1.4. Besides, the Nav1.6/Nav1.7 on hNav1.6 is recorded as more than 3442. Besides, on hNav1.4, the Nav1.4/Nav1.7 amounted to 411.

For the molecule `C#CC[C@H](N)C(=O)N[C@@H](Cc1ccc(O)cc1)C(=O)N[C@H]1CSSC[C@@H]2NC(=O)[C@@H]3CSSC[C@@H](C(=O)N[C@@H](CCCNC(=N)N)C(=O)N[C@@H](CCCCN)C(=O)N[C@@H](CCC(=O)O)C(=O)N[C@H](C(N)=O)[C@@H](C)CC)NC(=O)[C@H](Cc4c[nH]c5ccccc45)NC(=O)[C@H](CC(C)C)NC(=O)[C@H](CCCCN)NC(=O)[C@H](CSSC[C@H](NC(=O)[C@H]([C@@H](C)O)NC(=O)[C@H](Cc4c[nH]c5ccccc45)NC(=O)[C@H](CCCC)NC(=O)[C@H](CCc4ccccc4)NC(=O)[C@H](CCCCN)NC(=O)[C@H](CCC(N)=O)NC1=O)C(=O)N[C@@H](CC(=O)O)C(=O)N[C@@H](CO)C(=O)N[C@@H](CCCCN)C(=O)N[C@@H](CCCNC(=N)N)C(=O)N[C@@H](C)C(=O)N3)NC(=O)[C@H](CCCNC(=N)N)NC(=O)[C@H](CC(C)C)NC(=O)CNC(=O)[C@H](CCC(=O)O)NC2=O` [compound 844], the IC50 on hNav1.7 [1] (setting [3]) came to 0.000599 µM; on hNav1.7 [1] (Table 15), 0.000599 µM; on hNav1.4, 0.258 µM. The Nav1.6/Nav1.7 on hNav1.6 is on record as 1666. Besides, the Nav1.4/Nav1.7 at hNav1.4 was 431.

Turning to `C#CC[C@H](N)C(=O)N[C@@H](Cc1ccc(O)cc1)C(=O)N[C@H]1CSSC[C@@H]2NC(=O)[C@@H]3CSSC[C@@H](C(=O)N[C@@H](CCCNC(=N)N)C(=O)N[C@@H](CCCCN)C(=O)N[C@@H](CCC(=O)O)C(=O)N[C@H](C(N)=O)[C@@H](C)CC)NC(=O)[C@H](Cc4c[nH]c5ccccc45)NC(=O)[C@H](CC(C)C)NC(=O)[C@H](CCCCN)NC(=O)[C@H](CSSC[C@H](NC(=O)[C@H]([C@@H](C)O)NC(=O)[C@H](Cc4c[nH]c5ccccc45)NC(=O)[C@H](CCCC)NC(=O)[C@H](Cc4c[nH]c5ccccc45)NC(=O)[C@H](CCCCN)NC(=O)[C@H](CCC(N)=O)NC1=O)C(=O)N[C@@H](CC(=O)O)C(=O)N[C@@H](CO)C(=O)N[C@@H](CCCCN)C(=O)N[C@@H](CCCNC(=N)N)C(=O)N[C@@H](C)C(=O)N3)NC(=O)[C@H](C)NC(=O)[C@H](CC(C)C)NC(=O)CNC(=O)[C@H](CCC(=O)O)NC2=O` [compound 727], the IC50 on hNav1.7 [1] (setting [3]) was 0.905 µM. For the same molecule, at hNav1.6, the Nav1.6/Nav1.7 was more than 11 and the IC50 was more than 10 µM.

For `CC[C@H](C)[C@H](NC(=O)[C@@H](NC(=O)[C@H](CCCCN)NC(=O)[C@H](CCCNC(=N)N)NC(=O)[C@@H]1CSSC[C@@H]2NC(=O)[C@H](C)NC(=O)[C@H](CCCNC(=N)N)NC(=O)[C@H](CCCCN)NC(=O)[C@H](CO)NC(=O)[C@H](CC(=O)O)NC(=O)[C@@H]3CSSC[C@H](NC(=O)[C@H](CCCNC(=N)N)NC(=O)[C@H](CC(C)C)NC(=O)CNC(=O)[C@H](CCC(=O)O)NC(=O)[C@H](CSSC[C@H](NC(=O)[C@@H](N)Cc4ccc(O)cc4)C(=O)N[C@@H](CCC(N)=O)C(=O)N[C@@H](CCC(=O)O)C(=O)N[C@@H](Cc4c[nH]c5ccccc45)C(=O)N[C@@H](CCSC)C(=O)N[C@@H](Cc4c[nH]c5ccccc45)C(=O)N[C@@H]([C@@H](C)O)C(=O)N3)NC2=O)C(=O)N[C@@H](CCCCN)C(=O)N[C@@H](CC(C)C)C(=O)N[C@@H](Cc2c[nH]c3ccccc23)C(=O)N1)[C@@H](C)CC)C(N)=O` [compound 51], the IC50 at hNav1.7 [1] (PatchXpress, tonic, Table 11) was 0.847 µM. On hNav1.6, the Nav1.6/Nav1.7 is listed as more than 12 and the IC50 is more than 10 µM.

Take `C#CC[C@H](N)C(=O)N[C@@H](Cc1ccc(O)cc1)C(=O)N[C@H]1CSSC[C@@H]2NC(=O)[C@@H]3CSSC[C@@H](C(=O)N[C@@H](CCCNC(=N)N)C(=O)N[C@@H](CCCCN)C(=O)N[C@@H](CCC(=O)O)C(=O)N[C@H](C(N)=O)[C@@H](C)CC)NC(=O)[C@H](Cc4c[nH]c5ccccc45)NC(=O)[C@H](CC(C)C)NC(=O)[C@H](CCC(=O)O)NC(=O)[C@H](CSSC[C@H](NC(=O)[C@H]([C@@H](C)O)NC(=O)[C@H](Cc4c[nH]c5ccccc45)NC(=O)[C@H](CCCC)NC(=O)[C@H](Cc4c[nH]c5ccccc45)NC(=O)[C@H](CCCCN)NC(=O)[C@H](CCC(N)=O)NC1=O)C(=O)N[C@@H](CC(=O)O)C(=O)N[C@@H](CO)C(=O)N[C@@H](CCCCN)C(=O)N[C@@H](CCCNC(=N)N)C(=O)N[C@@H](C)C(=O)N3)NC(=O)[C@H](CCCNC(=N)N)NC(=O)[C@H](CC(C)C)NC(=O)CNC(=O)[C@H](CCC(=O)O)NC2=O` [compound 722]: the Nav1.6/Nav1.7 on hNav1.6 is reported as more than 442. Moreover, the Nav1.4/Nav1.7 at hNav1.4 is more than 442.

As to `CC[C@H](C)[C@H](NC(=O)[C@H](CCC(=O)O)NC(=O)[C@H](CCCCN)NC(=O)[C@H](CCCNC(=N)N)NC(=O)[C@@H]1CSSC[C@@H]2NC(=O)[C@H](C)NC(=O)[C@H](CCCNC(=N)N)NC(=O)[C@H](CCCCN)NC(=O)[C@H](CO)NC(=O)[C@H](CC(=O)O)NC(=O)[C@@H]3CSSC[C@H](NC(=O)[C@H](CCCNC(=N)N)NC(=O)[C@H](CC(C)C)NC(=O)CNC(=O)[C@H](CCC(=O)O)NC(=O)[C@H](CSSC[C@H](NC(=O)[C@@H](N)Cc4ccc(O)cc4)C(=O)N[C@@H](CCC(N)=O)C(=O)N[C@@H](CCCCN)C(=O)N[C@@H](Cc4c[nH]c5ccccc45)C(=O)N[C@@H](CCSC)C(=O)N[C@@H](Cc4c[nH]c5ccccc45)C(=O)N[C@@H]([C@@H](C)O)C(=O)N3)NC2=O)C(=O)N[C@@H](CCCCN)C(=O)N[C@@H](CC(C)C)C(=O)N[C@@H](Cc2c[nH]c3ccccc23)C(=O)N1)C(N)=O` [SEQ ID NO: 69, [Glu28]JzTx-V(1-29)], the “selectivity for Nav1.7 over Nav1.6” value at hNav1.6 (PatchXpress) was 437 fold.

`CC[C@H](C)[C@H](NC(=O)[C@H](Cc1ccc(O)cc1)NC(=O)[C@H](CCCCN)NC(=O)[C@H](CCCNC(=N)N)NC(=O)[C@@H]1CSSC[C@@H]2NC(=O)[C@H](C)NC(=O)[C@H](CCCNC(=N)N)NC(=O)[C@H](CCCCN)NC(=O)[C@H](CO)NC(=O)[C@H](CC(=O)O)NC(=O)[C@@H]3CSSC[C@H](NC(=O)[C@H](CCC(=O)O)NC(=O)[C@H](CC(C)C)NC(=O)CNC(=O)[C@H](CCC(=O)O)NC(=O)[C@H](CSSC[C@H](NC(=O)[C@@H](N)Cc4ccc(O)cc4)C(=O)N[C@@H](CCC(N)=O)C(=O)N[C@@H](CCCCN)C(=O)N[C@@H](Cc4ccc(I)cc4)C(=O)N[C@@H](CCSC)C(=O)N[C@@H](Cc4c[nH]c5ccccc45)C(=O)N[C@@H]([C@@H](C)O)C(=O)N3)NC2=O)C(=O)N[C@@H](CCCCN)C(=O)N[C@@H](CC(C)C)C(=O)N[C@@H](Cc2c[nH]c3ccccc23)C(=O)N1)C(N)=O` [compound 192]: on hNav1.7 [1] (setting [4]), the Nav1.4/Nav1.7 is reported as 78 and the Nav1.5/Nav1.7 is listed as more than 455. Besides, at hNav1.7 [2], the Nav1.4/Nav1.7 was 30.
